Target: hDGAT2 (Homo sapiens (Human), UniProt Q96PD7)
Test: In vitro DGAT2 assay, determination of IC50 values
Format: biochemical
Conditions: geometric mean; hDGAT2 membrane fraction, [1-14C]decanoyl-CoA and 1,2-didecanoyl-sn-glycerol substrates
Description: For the expression of hDGAT2, SF9 cells (20 L) grown in Sf900II media were infected with hDGAT2 baculovirus at a multiplicity of infection of 1 in a Wave Bioreactor System 20/50P wave bag (GE Healthcare). After 40 hours of infection, the cells were then harvested by centrifugation at 5,000×g. The cell pellets were washed by resuspending in phosphate buffered saline (PBS) and collected by centrifugation at 5,000×g. The cell paste was flash frozen in liquid N2 and stored at −80° C. until needed. All operations below were at 4° C. unless otherwise noted. The cells were resuspended in lysis buffer (50 mM Tris-HCl, pH 8.0, 250 mM sucrose) including 1 mM ethylenediaminetetraacetic acid (EDTA) and the complete protease inhibitor cocktail (Roche Diagnostics) at a ratio of 3 ml buffer per 1 g cell paste. The cells were lysed by dounce homogenizer. The cell debris was removed by centrifugation at 1,000×g for 20 min, and the supernatant was centrifuged at 100,000×g for 1 hour. […]
For determination of IC50 values, the reactions were carried out in 384-well white Polyplates (Perkin Elmer) in a total volume of 20 μL. […] Plates were centrifuged at 2,000×g for 1 minute in an Allegra 6R Centrifuge (Beckman Coulter) and then were sealed again with fresh covers before reading in a 1450 Microbeta Wallac Trilux Scintillation Counter (Perkin Elmer).

hDGAT2, sequence (Q96PD7 whole entry): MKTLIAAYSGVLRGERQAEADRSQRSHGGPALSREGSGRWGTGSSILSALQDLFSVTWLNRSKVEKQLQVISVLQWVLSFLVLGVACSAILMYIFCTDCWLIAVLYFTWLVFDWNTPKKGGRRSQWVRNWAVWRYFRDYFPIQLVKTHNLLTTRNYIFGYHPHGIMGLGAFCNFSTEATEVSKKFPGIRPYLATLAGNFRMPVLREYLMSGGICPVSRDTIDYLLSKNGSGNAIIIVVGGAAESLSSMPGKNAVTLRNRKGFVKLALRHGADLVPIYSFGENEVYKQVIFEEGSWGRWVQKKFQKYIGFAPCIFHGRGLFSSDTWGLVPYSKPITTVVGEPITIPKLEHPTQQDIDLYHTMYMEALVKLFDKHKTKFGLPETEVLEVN

`CCOc1cccnc1Oc1cncc(-c2ncc(C(=O)N[C@H]3CCOC3)cn2)c1` [Example 1, (S)-2-(5-((3-ethoxypyridin-2-yl)oxy)pyridin-3-yl)-N-(tetrahydrofuran-3-yl)pyrimidine-5-carboxamide] showed an IC50 of 17.2 nM.

From patent publication US20250066337A1, “Amorphous Form of (S)-2-(5-((3-Ethoxypyridin-2-YL)Oxy)Pyridin-3-YL)-N-(Tetrahydrofuran-3-YL)Pyrimidine-5-Carboxamide” (Pfizer Inc., priority 2021, published 2025)
